2 compounds from ChEMBL document CHEMBL1143848, “Tetracycline resistance in group a streptococci: emergence on a global scale and influence on multiple-drug resistance” (2007) can be followed below.

The experiment deals with Streptococcus. Briefly: Antimicrobial activity against group A streptococci assessed as percent resistant isolates by Etest. Format: functional.

In the case of `CC[C@H]1OC(=O)[C@H](C)[C@@H](O[C@H]2C[C@@](C)(OC)[C@@H](O)[C@H](C)O2)[C@H](C)[C@@H](O[C@@H]2O[C@H](C)C[C@H](N(C)C)[C@H]2O)[C@](C)(O)C[C@@H](C)C(=O)[C@H](C)[C@@H](O)[C@]1(C)O` [ERYTHROMYCIN], the Activity is 25%. The result for `CN(C)[C@@H]1C(O)=C(C(N)=O)C(=O)[C@@]2(O)C(O)=C3C(=O)c4c(O)cccc4[C@@](C)(O)[C@H]3C[C@@H]12` [TETRACYCLINE] reads 38%.
